Measured values as given in patent US20220395496A1 (Hoffmann-La Roche Inc., priority 2019, published 2022).

Biological target: T1, human TLR8 (Homo sapiens, UniProt Q9NR97)
T1 sequence (Q9NR97 27-1041): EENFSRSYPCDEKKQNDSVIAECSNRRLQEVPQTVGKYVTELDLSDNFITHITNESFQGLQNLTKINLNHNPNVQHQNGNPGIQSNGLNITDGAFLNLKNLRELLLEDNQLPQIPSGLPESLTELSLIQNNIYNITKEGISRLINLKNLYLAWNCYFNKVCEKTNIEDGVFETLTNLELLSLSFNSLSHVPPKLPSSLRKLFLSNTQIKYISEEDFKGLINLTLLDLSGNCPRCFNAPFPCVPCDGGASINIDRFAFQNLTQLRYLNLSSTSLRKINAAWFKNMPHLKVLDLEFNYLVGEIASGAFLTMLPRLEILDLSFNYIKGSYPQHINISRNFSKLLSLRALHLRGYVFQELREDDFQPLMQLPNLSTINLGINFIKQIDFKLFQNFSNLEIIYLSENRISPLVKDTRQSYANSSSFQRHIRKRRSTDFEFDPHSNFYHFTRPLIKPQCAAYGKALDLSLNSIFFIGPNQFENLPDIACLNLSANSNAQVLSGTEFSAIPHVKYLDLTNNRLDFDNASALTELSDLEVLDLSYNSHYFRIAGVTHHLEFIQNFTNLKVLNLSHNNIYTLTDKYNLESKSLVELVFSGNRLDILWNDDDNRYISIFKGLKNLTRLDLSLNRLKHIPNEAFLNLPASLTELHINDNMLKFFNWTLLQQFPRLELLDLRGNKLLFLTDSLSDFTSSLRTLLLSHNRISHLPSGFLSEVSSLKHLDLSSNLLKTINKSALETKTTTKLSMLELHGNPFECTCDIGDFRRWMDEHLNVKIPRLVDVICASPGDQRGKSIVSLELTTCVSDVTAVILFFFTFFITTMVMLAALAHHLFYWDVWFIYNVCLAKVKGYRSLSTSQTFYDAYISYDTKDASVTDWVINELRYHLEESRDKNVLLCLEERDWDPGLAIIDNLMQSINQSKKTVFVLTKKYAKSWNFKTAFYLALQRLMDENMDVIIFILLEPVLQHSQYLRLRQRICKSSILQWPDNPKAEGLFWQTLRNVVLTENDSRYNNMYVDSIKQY
Assay: HEK293-Blue-hTLR-8 cells assay (SEAP reporter, R848 stimulation)
Format: cell-based
Settings: HEK293-Blue-hTLR8 cells, R848, 20 hrs; lowest tested concentration 0.0032
Description: The following tests were carried out in order to determine the activity of the compounds of this invention in HEK293-Blue-hTLR-7/8/9 cells assay.
HEK293-Blue-hTLR-8 Cells Assay:
A stable HEK293-Blue-hTLR-8 cell line was purchased from InvivoGen (Cat. #: hkb-htlr8, San Diego, Calif., USA). These cells were originally designed for studying the stimulation of human TLR8 by monitoring the activation of NF-κB. A SEAP (secreted embryonic alkaline phosphatase) reporter gene was placed under the control of the IFN-β minimal promoter fused to five NF-κB and AP-1-binding sites. The SEAP was induced by activating NF-κB and AP-1 via stimulating HEK-Blue hTLR8 cells with TLR8 ligands. Therefore the reporter expression was declined by TLR8 antagonist under the stimulation of a ligand, such as R848, for incubation of 20 hrs. The cell culture supernatant SEAP reporter activity was determined using QUANTI-Blue™kit (Cat. #: rep-qb1, Invivogen, San Diego, Calif., USA) at a wavelength of 640 nm, a detection medium that turns purple or blue in the presence of alkaline phosphatase.
HEK293-Blue-hTLR8 cells were incubated at a density of […] cells/mL in a volume of 170 μL in a 96-well plate in Dulbecco's Modified Eagle's medium (DMEM) containing 4.5 g/L glucose, 50 U/mL penicillin, […], […], 2 mM L-glutamine, 10% (v/v) heat-inactivated fetal bovine serum with addition of 20 μL test compound in a serial dilution in the presence of final DMSO at 1% and 10 μL of 60 uM R848 in above DMEM, perform incubation under 37° C. in a CO2 incubator for 20 hrs. Then 20 μL of the supernatant from each well was incubated with 180 μL Quanti-blue substrate solution at 37° C. for 2 hrs and the absorbance was read at 620˜655 nm using a spectrophotometer. The signalling pathway that TLR8 activation leads to downstream NF-κB activation has been widely accepted, and therefore similar reporter assay was modified for evaluating TLR8 antagonist.

Question: How did the IC50 turn out when `C[C@H]1C[C@@H](NCc2ccc(N3CCNCC3)cc2)CN(c2ccc(Cl)c3ncccc23)C1` [Example 22, (3R,5S)-1-(8-chloro-5-quinolyl)-5-methyl-N-[(4-piperazin-1-ylphenyl)methyl]piperidin-3-amine] was run?
Answer: 5 nM

Question: How did the IC50 turn out when `C[C@H]1C[C@@H](N2CCc3cc(N4CCNCC4)ccc3C2)CN(c2ccc(C#N)c3ncccc23)C1` (relative stereo) [Example 24, 5-[cis-3-methyl-5-(6-piperazin-1-yl-3,4-dihydro-1H-isoquinolin-2-yl)-1-piperidyl]quinoline-8-carbonitrile] was run?
Answer: < 3.2 nM

Question: With `C[C@H]1C[C@@H](NCc2ccc(N3CCNCC3)cc2)CN(c2ccc(C#N)n3nccc23)C1` [Example 21, 4-[(3S,5R)-3-methyl-5-[(4-piperazin-1-ylphenyl)methylamino]-1-piperidyl]pyrazolo[1,5-a]pyridine-7-carbonitrile] as the compound, how does the IC50 read?
Answer: 42 nM

Question: For `C[C@H]1C[C@@H](NCc2ccc(N3CCC(N)C3)cc2)CN(c2ccc(C#N)c3ncccc23)C1` (stereo partly drawn) [Example 13, 5-[(3R,5S)-3-[[4-(3-aminopyrrolidin-1-yl)phenyl]methylamino]-5-methyl-1-piperidyl]quinoline-8-carbonitrile], which IC50 is on record?
Answer: 6 nM
